# Laboratory results published in publication PMC9617638 (Journal of medicinal chemistry, 2019).
# Where “and” joins values, the source holds several entries; their conditions need not be identical. Identical values can stand only once. Entries after “also recorded” stand apart in the source; their conditions may differ.
# What was measured:
# σ1 receptor = σ1 receptor (Cavia porcellus, UniProt Q60492); experiment: σ1 receptor binding assay, [3H]; design: species or system guinea pig; details: for selectivity for σ1R over DAT and SERT (in words): σ1R versus monoamine transporters
# Chain of σ1 receptor (Q60492 whole entry): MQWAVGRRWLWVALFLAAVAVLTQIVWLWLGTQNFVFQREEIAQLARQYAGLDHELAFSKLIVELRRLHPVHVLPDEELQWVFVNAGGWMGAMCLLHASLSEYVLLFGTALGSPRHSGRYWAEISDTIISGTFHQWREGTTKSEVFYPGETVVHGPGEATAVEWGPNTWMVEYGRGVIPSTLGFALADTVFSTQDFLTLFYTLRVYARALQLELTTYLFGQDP
# DAT = DAT (Rattus norvegicus, UniProt P23977); experiment: DAT binding assay, [3H]WIN 35,428, rat striatum membranes; details: for DAT Ki values (in words): terminal piperazine amine changed to amide
# Chain of DAT (P23977 whole entry): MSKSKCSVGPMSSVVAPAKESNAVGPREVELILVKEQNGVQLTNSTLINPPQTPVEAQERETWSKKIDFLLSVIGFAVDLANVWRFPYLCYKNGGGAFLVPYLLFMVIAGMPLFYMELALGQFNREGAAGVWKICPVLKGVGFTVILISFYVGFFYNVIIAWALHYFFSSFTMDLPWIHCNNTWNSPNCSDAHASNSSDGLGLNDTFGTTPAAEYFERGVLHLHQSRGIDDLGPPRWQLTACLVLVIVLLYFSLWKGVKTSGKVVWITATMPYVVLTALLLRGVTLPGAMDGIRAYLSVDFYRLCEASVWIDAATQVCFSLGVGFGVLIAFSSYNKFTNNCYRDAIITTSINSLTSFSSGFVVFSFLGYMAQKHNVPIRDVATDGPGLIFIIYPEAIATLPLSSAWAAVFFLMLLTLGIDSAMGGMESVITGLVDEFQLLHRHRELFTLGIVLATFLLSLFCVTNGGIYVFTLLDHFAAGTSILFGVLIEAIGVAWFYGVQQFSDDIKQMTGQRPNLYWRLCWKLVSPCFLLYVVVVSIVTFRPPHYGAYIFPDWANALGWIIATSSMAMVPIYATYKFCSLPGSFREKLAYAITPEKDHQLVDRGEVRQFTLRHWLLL
# SERT = SERT (Rattus norvegicus, UniProt P31652); experiment: SERT binding assay, [3H]citalopram, rat brain stem membranes; details: DAT versus SERT Ki
# Chain of SERT (P31652 whole entry): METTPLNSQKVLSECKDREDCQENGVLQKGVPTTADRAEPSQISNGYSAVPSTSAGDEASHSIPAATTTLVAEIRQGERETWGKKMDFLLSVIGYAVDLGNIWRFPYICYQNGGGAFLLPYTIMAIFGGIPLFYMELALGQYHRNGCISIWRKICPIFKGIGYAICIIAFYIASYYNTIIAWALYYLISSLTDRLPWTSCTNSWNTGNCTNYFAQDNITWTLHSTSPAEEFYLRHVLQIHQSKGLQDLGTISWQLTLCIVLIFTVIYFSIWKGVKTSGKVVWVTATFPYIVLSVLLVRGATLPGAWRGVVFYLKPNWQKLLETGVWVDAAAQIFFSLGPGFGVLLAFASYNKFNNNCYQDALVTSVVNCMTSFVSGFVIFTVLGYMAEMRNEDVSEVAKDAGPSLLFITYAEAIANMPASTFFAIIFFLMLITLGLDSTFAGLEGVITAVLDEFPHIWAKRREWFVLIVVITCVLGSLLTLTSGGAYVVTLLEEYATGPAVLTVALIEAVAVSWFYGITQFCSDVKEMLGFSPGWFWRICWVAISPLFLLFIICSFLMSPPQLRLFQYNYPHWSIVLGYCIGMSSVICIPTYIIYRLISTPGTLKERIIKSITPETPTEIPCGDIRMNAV
# hERG = hERG (Homo sapiens, UniProt Q12809); experiment: hERG current block; type: cell-based; details: hERG IC50 over DAT Ki
# Chain of hERG (Q12809 whole entry): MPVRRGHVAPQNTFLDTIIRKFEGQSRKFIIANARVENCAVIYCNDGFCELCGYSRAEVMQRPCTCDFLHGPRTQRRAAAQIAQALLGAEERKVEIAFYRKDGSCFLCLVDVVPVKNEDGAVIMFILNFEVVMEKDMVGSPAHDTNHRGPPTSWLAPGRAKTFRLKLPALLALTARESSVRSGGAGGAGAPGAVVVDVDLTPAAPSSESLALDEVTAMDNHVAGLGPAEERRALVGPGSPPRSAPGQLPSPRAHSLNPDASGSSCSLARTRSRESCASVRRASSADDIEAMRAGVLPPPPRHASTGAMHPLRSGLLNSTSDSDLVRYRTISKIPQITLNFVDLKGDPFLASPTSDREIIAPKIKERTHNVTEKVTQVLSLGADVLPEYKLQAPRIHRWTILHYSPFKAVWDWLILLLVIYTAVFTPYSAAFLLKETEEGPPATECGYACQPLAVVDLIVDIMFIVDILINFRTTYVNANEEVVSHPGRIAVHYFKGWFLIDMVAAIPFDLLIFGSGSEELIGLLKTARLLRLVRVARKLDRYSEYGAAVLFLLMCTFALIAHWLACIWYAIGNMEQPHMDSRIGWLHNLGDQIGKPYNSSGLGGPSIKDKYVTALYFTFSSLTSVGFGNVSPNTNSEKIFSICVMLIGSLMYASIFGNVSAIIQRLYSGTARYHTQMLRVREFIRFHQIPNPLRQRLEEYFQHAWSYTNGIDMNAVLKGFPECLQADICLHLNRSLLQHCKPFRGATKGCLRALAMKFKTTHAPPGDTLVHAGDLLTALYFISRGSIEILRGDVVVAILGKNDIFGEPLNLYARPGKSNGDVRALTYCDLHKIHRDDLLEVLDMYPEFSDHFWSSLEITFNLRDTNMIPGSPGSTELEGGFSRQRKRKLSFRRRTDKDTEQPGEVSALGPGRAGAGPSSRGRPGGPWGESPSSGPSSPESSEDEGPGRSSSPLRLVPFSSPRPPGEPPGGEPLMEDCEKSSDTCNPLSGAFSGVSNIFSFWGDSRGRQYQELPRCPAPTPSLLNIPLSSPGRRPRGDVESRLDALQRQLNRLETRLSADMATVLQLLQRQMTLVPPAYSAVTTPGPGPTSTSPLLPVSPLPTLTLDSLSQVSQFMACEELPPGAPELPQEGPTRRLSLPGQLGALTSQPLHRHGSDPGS
# [1] = Off-target binding interactions; details: concentration of 100 nM
# [2] = Phase I metabolic stability in mouse liver microsomes; type: in vitro ADME; details: for phase I metabolic stability (in words): mouse liver microsomes, 60 min; for compound remaining: mouse microsomes fortified with NADPH, 60 min (1 h)
# mouse locomotion = experiment: Locomotor activity in mice; type: in vivo; details: i.p., 2 h session, cocaine 3-30 mg/kg, 14a 1-30 mg/kg, 14b/14c 1-10 mg/kg
# DAT Y156F mutant = DAT Y156F mutant (Homo sapiens, UniProt Q01959, Y156F); type: binding; details: read-out: Y156F Ki, COS7 cells, mean [SE interval]
# Chain of DAT Y156F mutant (Q01959 whole entry Y156F): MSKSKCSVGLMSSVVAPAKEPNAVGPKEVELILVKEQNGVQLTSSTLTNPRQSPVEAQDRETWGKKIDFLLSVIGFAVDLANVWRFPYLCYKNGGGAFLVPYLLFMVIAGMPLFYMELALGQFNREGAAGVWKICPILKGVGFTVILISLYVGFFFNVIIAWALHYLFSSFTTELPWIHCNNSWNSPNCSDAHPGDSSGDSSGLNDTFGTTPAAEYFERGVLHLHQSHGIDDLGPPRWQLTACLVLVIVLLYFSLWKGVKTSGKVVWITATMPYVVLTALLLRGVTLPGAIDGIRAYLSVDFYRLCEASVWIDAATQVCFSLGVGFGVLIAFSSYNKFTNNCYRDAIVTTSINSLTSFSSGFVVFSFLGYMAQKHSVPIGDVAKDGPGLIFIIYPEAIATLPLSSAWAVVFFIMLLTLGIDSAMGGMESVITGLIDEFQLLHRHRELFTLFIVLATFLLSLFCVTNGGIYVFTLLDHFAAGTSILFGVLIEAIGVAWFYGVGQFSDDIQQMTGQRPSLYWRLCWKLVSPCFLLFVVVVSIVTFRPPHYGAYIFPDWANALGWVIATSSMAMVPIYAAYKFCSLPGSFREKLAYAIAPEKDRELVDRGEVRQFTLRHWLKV
# [3] = Metabolic stability in human liver microsomes; type: in vitro ADME
compound,measurement,setting,value
1-(4-(2-((Bis(4-fluorophenyl)methyl)thio)ethyl)piperazin-1-yl)-2-phenylethan-1-one [8f],selectivity for σ1R over DAT and SERT (in words),σ1 receptor,σ1R selective
same,DAT Ki values (in words),DAT,low micromolar range
same,selectivity for DAT over SERT (in words),SERT,equivalent
"CC(O)CN1CCN(CCSC(c2ccc(F)cc2)c2ccc(F)cc2)CC1 (stereo not shown) [3a, reference compound]",hERG/DAT affinity ratio,hERG,3
"CC(O)CN1CCN(CC[S+]([O-])C(c2ccc(F)cc2)c2ccc(F)cc2)CC1 (stereo not shown) [3b, 1-(4-(2-((bis(4-fluorophenyl)methyl)sulfinyl)ethyl)-piperazin-1-yl)-propan-2-ol, reference compound]",off-target interactions,[1],no significant interactions
"OC(Cc1ccc(F)cc1)CN1CCN(CCSC(c2ccc(F)cc2)c2ccc(F)cc2)CC1 (stereo not shown) [8a, 1-(4-(2-((Bis(4-fluorophenyl)methyl)thio)ethyl)piperazin-1-yl)-3-(4-fluorophenyl)propan-2-ol]",phase I metabolic stability (in words),[2],almost no compound present after 60 min
"O[C@@H](Cc1ccccc1)CN1CCN(CCSC(c2ccc(F)cc2)c2ccc(F)cc2)CC1 [8d, (S)-1-(4-(2-((Bis(4-fluorophenyl)methyl)thio)ethyl)piperazin-1-yl)-3-phenylpropan-2-ol]",phase I metabolic stability (in words),[2],almost no compound present after 60 min
"O[C@H](Cc1ccccc1)CN1CCN(CCSC(c2ccc(F)cc2)c2ccc(F)cc2)CC1 [8e, (R)-1-(4-(2-((Bis(4-fluorophenyl)methyl)thio)ethyl)piperazin-1-yl)-3-phenylpropan-2-ol]",phase I metabolic stability (in words),[2],almost no compound present after 60 min
"CC(=O)CN1CCN(CCSC(c2ccc(F)cc2)c2ccc(F)cc2)CC1 [8g, 1-(4-(2-((Bis(4-fluorophenyl)methyl)thio)ethyl)piperazin-1-yl)propan-2-one]",selectivity for σ1R over DAT and SERT (in words),σ1 receptor,σ1R selective
same,decrease of DAT affinity compared to 3a,DAT; 2-propanol oxidised to 2-propanone,~ 5 fold
"CCC(=O)N1CCN(CCSC(c2ccc(F)cc2)c2ccc(F)cc2)CC1 [11d, 1-(4-(2-((Bis(4-fluorophenyl)methyl)thio)ethyl)piperazin-1-yl)propan-1-one]",selectivity for σ1R over DAT and SERT (in words),σ1 receptor,σ1R selective
same,DAT Ki values (in words),DAT,low micromolar range
same,selectivity for DAT over SERT (in words),SERT,equivalent
"C[C@H](O)CN1CCN(CC[S+]([O-])C(c2ccc(F)cc2)c2ccc(F)cc2)CC1 (stereo partly drawn) [12a, (S)-1-(4-(2-((Bis(4-fluorophenyl)methyl)sulfinyl)ethyl)piperazin-1-yl)propan-2-ol]",phase I metabolic stability (in words),[2],exceptional and similar metabolic stability
"C[C@@H](O)CN1CCN(CC[S+]([O-])C(c2ccc(F)cc2)c2ccc(F)cc2)CC1 (stereo partly drawn) [12b, (R)-1-(4-(2-((Bis(4-fluorophenyl)methyl)sulfinyl)ethyl)piperazin-1-yl)propan-2-ol]",phase I metabolic stability (in words),[2],exceptional and similar metabolic stability
"[O-][S+](CCCN1CCN(CCCc2ccccc2)CC1)C(c1ccc(F)cc1)c1ccc(F)cc1 (stereo not shown) [12c, 1-(3-((Bis(4-fluorophenyl)methyl)sulfinyl)propyl)-4-(3-phenylpropyl)piperazine]",phase I metabolic stability (in words),[2],almost no compound present after 60 min
"CC(O)CN1[C@H](C)CN(CCSC(c2ccc(F)cc2)c2ccc(F)cc2)C[C@@H]1C (stereo partly drawn) [14a, 1-(4-(2-((Bis(4-fluorophenyl)methyl)thio)ethyl)-2,6-cis-dimethylpiperazin-1-yl)propan-2-ol]",higher binding affinity at σ1 receptors than at DAT,σ1 receptor; σ1 versus DAT,~ 4 fold
same,"locomotor (ambulatory) activity, maximum distance traveled in 30 min",mouse locomotion,not significantly different than vehicle; also recorded: only moderate locomotor stimulation
same,Ki,DAT Y156F mutant,269 nM
same,off-target interactions,[1],no significant interactions
same,metabolic stability (in words),[3],moderate metabolic stability
"CC(O)CN1[C@H](C)CN(CC[S+]([O-])C(c2ccc(F)cc2)c2ccc(F)cc2)C[C@@H]1C (stereo partly drawn) [15a, 1-(4-(2-((Bis(4-fluorophenyl)methyl)sulfinyl)ethyl)-2,6-cis-dimethylpiperazin-1-yl)propan-2-ol]",off-target interactions,[1],no significant interactions
same,compound remaining,[2],30–44%
same,hERG/DAT affinity ratio,hERG,30
"C[C@@H]1CN(CC[S+]([O-])C(c2ccc(F)cc2)c2ccc(F)cc2)C[C@H](C)N1CC(O)Cc1ccccc1 (stereo partly drawn) [15b, 1-(4-(2-((Bis(4-fluorophenyl)methyl)sulfinyl)ethyl)-2,6-cis-dimethylpiperazin-1-yl)-3-phenylpropan-2-ol]",off-target interactions,[1],no significant interactions
same,phase I metabolic stability (in words),[2],almost no compound present after 60 min
"OC(CN1CCC2(CCN(CCSC(c3ccc(F)cc3)c3ccc(F)cc3)CC2)C1)c1ccccc1 (stereo not shown) [18b, 2-(8-(2-((Bis(4-fluorophenyl)methyl)thio)ethyl)-2,8-diazaspiro[4.5]decan-2-yl)-1-phenylethan-1-ol]",selectivity for σ1R over DAT and SERT (in words),σ1 receptor,binding preference for σ1R
same,compound remaining,[2],30–44% and 44%
same,selectivity for DAT over SERT (in words),SERT,not selective for DAT over SERT; also recorded: equivalent
"CC(O)CN1CCC2(CCN(CC[S+]([O-])C(c3ccc(F)cc3)c3ccc(F)cc3)CC2)C1 (stereo not shown) [compound 19, 1-(8-(2-((Bis(4-fluorophenyl)methyl)sulfinyl)ethyl)-2,8-diazaspiro[4.5]decan-2-yl)propan-2-ol]",selectivity for σ1R over DAT and SERT (in words),σ1 receptor,binding preference for σ1R
same,selectivity for DAT over SERT (in words),SERT,not selective for DAT over SERT; also recorded: equivalent
